# Test results reported in patent publication US20260224588A1, “BENZODIAZEPINONE-DERIVED INHIBITORS OF EGFR AND HER2” (The Research Foundation for the State University of New York, priority 2023, published 2026).
# Key:
# Assay in all cases: KINOMEscan
# Assay type in all cases: binding
# Settings in all cases: 1 μM of compound 4; read-out: POC
# [1] = biological target: T1, ABL1(E255K)-phosphorylated (Homo sapiens, UniProt P00519, E255K)
# T1 construct: purchased Eurofins DiscoverX Corporation
# [2] = biological target: T2, ABL1(Y253F)-phosphorylated (Homo sapiens, UniProt P00519, Y253F)
# T2 construct: purchased Eurofins DiscoverX Corporation
# [3] = biological target: CDK4-cyclinD1 (Homo sapiens, UniProt P11802)
# [4] = biological target: CLK1 (Homo sapiens, UniProt P49759)
# CLK1, sequence (P49759 whole entry): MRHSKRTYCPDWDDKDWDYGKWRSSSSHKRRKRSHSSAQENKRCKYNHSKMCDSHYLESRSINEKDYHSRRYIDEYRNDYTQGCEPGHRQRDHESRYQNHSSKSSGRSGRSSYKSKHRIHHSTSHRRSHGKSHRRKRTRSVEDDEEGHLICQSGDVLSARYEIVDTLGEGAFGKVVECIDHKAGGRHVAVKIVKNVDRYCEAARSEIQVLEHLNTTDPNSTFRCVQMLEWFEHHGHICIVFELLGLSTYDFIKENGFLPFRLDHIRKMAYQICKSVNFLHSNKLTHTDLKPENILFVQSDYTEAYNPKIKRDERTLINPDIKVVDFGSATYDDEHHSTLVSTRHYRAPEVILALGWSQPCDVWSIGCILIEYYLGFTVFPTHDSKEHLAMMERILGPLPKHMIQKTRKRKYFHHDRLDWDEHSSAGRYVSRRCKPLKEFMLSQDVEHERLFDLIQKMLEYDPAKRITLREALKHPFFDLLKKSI
# [5] = biological target: CSF1R (Homo sapiens, UniProt P07333)
# [6] = biological target: DDR1 (Homo sapiens, UniProt Q08345)
# [7] = biological target: T3, EGFR(G719S) (Homo sapiens, UniProt P00533, G719S)
# T3 construct: purchased Eurofins DiscoverX (KINOMEscan service)
# [8] = biological target: T4, EGFR(S752-1759del) (Homo sapiens, UniProt P00533, DEL752-759)
# T4 construct: purchased Eurofins DiscoverX (KINOMEscan service)
# [9] = biological target: T5, FGFR4 (Homo sapiens, UniProt P22455)
# T5 construct: purchased Eurofins DiscoverX Corporation
# [10] = biological target: T6, FLT3 (Homo sapiens, UniProt P36888)
# T6 construct: purchased Eurofins DiscoverX Corporation
# [11] = biological target: T7, FLT3(D835Y) (Homo sapiens, UniProt P36888, D835Y)
# T7 construct: purchased Eurofins DiscoverX Corporation
# [12] = biological target: T8, GRK7 (Homo sapiens, UniProt Q8WTQ7)
# T8 construct: purchased Eurofins DiscoverX Corporation
# [13] = biological target: T9, HPK1 (Homo sapiens, UniProt Q92918)
# T9 construct: purchased Eurofins DiscoverX Corporation
# [14] = biological target: IKK-alpha (Homo sapiens, UniProt O15111)
# IKK-alpha, sequence (O15111 whole entry): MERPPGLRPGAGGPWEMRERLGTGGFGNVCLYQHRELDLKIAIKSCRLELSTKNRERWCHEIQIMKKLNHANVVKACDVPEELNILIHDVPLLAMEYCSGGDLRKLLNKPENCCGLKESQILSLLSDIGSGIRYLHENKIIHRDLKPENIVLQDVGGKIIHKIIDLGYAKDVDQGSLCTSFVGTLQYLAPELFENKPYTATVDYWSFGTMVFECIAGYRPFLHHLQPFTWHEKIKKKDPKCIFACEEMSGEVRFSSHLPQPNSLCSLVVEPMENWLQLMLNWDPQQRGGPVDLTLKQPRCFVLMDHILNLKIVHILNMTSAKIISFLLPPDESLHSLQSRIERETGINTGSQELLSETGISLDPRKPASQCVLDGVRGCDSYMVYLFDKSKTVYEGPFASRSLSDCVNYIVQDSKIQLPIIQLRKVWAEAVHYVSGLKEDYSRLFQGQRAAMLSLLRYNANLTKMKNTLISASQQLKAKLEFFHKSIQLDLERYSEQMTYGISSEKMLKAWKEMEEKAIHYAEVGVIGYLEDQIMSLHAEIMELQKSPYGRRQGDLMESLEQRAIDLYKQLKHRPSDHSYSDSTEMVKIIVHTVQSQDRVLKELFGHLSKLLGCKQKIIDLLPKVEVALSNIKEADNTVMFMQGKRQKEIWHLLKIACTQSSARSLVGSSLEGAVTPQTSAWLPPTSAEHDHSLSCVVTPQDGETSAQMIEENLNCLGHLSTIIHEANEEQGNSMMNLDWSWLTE
# [15] = biological target: INSR (Homo sapiens, UniProt P06213)
# [16] = biological target: IRAK1 (Homo sapiens, UniProt P51617)
# [17] = biological target: MAP3K3 (Homo sapiens, UniProt Q99759)
# MAP3K3, sequence (Q99759 whole entry): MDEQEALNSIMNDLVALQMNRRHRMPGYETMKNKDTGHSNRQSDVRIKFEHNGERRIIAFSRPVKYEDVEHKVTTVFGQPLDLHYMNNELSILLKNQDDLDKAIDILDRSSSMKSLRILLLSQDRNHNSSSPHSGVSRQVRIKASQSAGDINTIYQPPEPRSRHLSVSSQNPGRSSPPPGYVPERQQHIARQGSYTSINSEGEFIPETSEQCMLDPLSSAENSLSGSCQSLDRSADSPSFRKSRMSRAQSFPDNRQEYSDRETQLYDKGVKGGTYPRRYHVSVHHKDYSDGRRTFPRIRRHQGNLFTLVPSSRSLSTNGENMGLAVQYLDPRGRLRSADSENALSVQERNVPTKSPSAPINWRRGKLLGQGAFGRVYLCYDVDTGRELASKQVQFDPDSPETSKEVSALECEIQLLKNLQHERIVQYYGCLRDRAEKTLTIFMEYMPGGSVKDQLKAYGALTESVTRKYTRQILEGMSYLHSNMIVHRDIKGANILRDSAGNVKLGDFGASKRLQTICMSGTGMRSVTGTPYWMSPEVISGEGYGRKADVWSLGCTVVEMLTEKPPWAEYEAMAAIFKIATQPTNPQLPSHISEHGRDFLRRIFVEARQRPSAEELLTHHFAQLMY
# [18] = biological target: MAP4K4 (Homo sapiens, UniProt O95819)
# [19] = biological target: MAPKAPK5 (Homo sapiens, UniProt Q8IW41)
# MAPKAPK5, sequence (Q8IW41 whole entry): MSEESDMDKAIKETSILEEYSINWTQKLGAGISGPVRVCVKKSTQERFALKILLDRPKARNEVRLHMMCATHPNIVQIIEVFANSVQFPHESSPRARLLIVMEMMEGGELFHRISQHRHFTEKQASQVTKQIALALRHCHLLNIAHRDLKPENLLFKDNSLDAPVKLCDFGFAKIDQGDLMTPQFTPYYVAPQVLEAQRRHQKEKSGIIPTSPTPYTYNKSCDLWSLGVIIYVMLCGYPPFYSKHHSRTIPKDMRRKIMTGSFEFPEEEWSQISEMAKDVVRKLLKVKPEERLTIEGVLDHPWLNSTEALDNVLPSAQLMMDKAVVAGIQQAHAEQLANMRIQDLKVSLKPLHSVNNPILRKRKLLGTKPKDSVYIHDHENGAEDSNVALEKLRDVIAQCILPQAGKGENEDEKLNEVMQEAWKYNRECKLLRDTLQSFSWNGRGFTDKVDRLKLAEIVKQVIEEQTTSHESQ
# [20] = biological target: MARK1 (Homo sapiens, UniProt Q9P0L2)
# [21] = biological target: MEK4 (Homo sapiens, UniProt P45985)
# [22] = biological target: MLCK (Homo sapiens, UniProt Q32MK0)
# [23] = biological target: MST3 (Homo sapiens, UniProt Q9Y6E0)
# [24] = biological target: NDR1 (Homo sapiens, UniProt Q15208)
# NDR1, sequence (Q15208 whole entry): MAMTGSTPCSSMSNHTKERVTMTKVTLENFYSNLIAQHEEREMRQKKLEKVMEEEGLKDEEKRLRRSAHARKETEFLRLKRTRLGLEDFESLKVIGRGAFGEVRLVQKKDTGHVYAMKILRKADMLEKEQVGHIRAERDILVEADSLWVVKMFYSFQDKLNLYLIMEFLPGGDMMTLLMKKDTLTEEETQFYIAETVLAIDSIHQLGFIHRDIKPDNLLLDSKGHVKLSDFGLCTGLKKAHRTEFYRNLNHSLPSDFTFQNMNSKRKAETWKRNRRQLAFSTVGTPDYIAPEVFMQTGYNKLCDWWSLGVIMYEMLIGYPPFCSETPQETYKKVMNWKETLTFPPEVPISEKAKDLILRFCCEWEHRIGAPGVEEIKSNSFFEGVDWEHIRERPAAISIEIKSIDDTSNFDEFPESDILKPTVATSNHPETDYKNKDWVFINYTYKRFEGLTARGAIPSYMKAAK
# [25] = biological target: NEK4 (Homo sapiens, UniProt P51957)
# [26] = biological target: PKN2 (Homo sapiens, UniProt Q16513)
# [27] = biological target: PRKG1 (Homo sapiens, UniProt Q13976)
# PRKG1, sequence (Q13976 whole entry): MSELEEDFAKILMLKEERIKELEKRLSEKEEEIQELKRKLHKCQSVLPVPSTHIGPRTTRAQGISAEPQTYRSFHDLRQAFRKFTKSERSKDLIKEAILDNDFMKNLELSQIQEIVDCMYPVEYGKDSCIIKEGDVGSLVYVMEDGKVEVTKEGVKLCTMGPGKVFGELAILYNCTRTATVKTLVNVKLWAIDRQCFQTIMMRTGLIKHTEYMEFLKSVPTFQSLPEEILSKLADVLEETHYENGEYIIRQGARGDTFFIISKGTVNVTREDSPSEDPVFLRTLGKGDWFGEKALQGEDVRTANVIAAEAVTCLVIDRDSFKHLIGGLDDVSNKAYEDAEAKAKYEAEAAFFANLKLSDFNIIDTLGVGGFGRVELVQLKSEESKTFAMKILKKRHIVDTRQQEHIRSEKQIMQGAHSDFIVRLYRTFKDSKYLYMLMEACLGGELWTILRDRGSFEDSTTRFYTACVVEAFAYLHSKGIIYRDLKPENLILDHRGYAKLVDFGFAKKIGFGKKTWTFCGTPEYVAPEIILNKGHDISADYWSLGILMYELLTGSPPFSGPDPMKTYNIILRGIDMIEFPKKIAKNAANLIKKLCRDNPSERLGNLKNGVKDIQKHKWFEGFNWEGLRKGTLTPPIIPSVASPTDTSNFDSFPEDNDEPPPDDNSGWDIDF
# [28] = biological target: T10, RPS6KA5(Kin.Dom.1-N-terminal) (Homo sapiens, UniProt O75582)
# T10 construct: RPS6KA5(Kin.Dom.1-N-terminal); purchased Eurofins DiscoverX Corporation (KINOMEscan screening service)
# [29] = biological target: T11, RSK2(Kin.Dom.1-N-terminal) (Homo sapiens, UniProt P51812)
# T11 construct: RSK2(Kin.Dom.1-N-terminal); purchased Eurofins DiscoverX Corporation (KINOMEscan screening service)
# [30] = biological target: T12, SRPK3 (Homo sapiens, UniProt Q9UPE1)
# T12 construct: purchased Eurofins DiscoverX (KINOMEscan service)
# [31] = biological target: T13, TAOK3 (Homo sapiens, UniProt Q9H2K8)
# T13 construct: purchased Eurofins DiscoverX Corporation
# T13 sequence (Q9H2K8 whole entry): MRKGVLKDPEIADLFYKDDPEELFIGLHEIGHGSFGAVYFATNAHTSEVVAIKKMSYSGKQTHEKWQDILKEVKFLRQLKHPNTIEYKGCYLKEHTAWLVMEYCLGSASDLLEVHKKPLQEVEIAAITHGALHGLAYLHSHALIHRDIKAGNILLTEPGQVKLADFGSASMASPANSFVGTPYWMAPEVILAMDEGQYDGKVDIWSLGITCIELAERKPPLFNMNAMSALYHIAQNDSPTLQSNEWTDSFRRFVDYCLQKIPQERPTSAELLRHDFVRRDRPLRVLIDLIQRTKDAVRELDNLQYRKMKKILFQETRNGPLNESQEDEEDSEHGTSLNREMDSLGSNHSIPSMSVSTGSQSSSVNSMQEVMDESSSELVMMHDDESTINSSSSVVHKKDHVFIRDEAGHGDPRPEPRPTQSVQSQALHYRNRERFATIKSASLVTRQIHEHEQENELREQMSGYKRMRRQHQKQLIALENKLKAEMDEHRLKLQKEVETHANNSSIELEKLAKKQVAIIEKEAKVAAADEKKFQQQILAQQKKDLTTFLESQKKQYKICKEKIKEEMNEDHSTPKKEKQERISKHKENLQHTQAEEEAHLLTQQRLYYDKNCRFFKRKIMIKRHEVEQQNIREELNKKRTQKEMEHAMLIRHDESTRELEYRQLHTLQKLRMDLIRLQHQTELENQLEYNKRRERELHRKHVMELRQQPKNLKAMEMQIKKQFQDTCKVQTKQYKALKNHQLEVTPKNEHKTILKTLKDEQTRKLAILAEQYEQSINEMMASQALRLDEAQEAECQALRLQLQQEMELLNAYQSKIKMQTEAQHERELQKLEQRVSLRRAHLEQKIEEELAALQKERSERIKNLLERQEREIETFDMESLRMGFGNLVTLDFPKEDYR
# [32] = biological target: T14, TESK1 (Homo sapiens, UniProt Q15569)
# T14 construct: purchased Eurofins DiscoverX Corporation
# T14 sequence (Q15569 whole entry): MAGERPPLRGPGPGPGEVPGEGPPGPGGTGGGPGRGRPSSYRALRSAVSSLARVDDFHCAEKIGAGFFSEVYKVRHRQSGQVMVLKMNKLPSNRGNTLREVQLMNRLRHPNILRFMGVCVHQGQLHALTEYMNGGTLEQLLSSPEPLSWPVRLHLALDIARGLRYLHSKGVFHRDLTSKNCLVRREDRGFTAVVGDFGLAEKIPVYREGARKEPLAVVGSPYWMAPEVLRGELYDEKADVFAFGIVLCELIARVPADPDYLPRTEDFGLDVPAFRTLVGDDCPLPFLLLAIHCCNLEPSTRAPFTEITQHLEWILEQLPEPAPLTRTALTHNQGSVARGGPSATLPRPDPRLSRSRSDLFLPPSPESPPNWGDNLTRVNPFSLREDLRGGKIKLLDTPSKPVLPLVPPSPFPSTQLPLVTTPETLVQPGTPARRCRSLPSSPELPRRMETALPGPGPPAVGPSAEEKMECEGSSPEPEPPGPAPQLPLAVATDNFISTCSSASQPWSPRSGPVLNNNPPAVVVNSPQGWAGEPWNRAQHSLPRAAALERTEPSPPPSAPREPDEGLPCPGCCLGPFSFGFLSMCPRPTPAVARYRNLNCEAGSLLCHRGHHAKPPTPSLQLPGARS
# [33] = biological target: T15, TNNI3K (Homo sapiens, UniProt Q59H18)
# T15 construct: purchased Eurofins DiscoverX Corporation
# [34] = biological target: T16, TTK (Homo sapiens, UniProt P33981)
# T16 construct: purchased Eurofins DiscoverX Corporation
# [35] = biological target: T17, TXK (Homo sapiens, UniProt P42681)
# T17 construct: purchased Eurofins DiscoverX
# [36] = biological target: T18, YANK2 (Homo sapiens, UniProt Q9NY57)
# T18 construct: purchased Eurofins DiscoverX
# [37] = biological target: T19, YANK3 (Homo sapiens, UniProt Q86UX6)
# T19 construct: purchased Eurofins DiscoverX
# [38] = biological target: T20, YSK4 (Homo sapiens, UniProt Q56UN5)
# T20 construct: purchased Eurofins DiscoverX
compound,measurement,setting,value
"C=CC(=O)Nc1ccc(OC)c(Nc2cc(-c3[nH]c(CC)nc3-c3cccc(NC(=O)c4cccc5c4NC(=O)c4ccccc4N5)c3)ccn2)c1 [Compound 4, N-(3-(5-(2-((5-Acrylamido-2-methoxyphenyl)amino)pyridin-4-yl)-2-ethyl-1H-imidazol-4-yl)phenyl)-11-oxo-10,11-dihydro-5H-dibenzo[b,e][1,4]diazepine-9-carboxamide]",remaining binding at 1 µM,[1],65%
same,remaining binding at 1 µM,[2],72%
same,remaining binding at 1 µM,[3],94%
same,remaining binding at 1 µM,[4],100%
same,remaining binding at 1 µM,[5],100%
same,remaining binding at 1 µM,[6],90%
same,remaining binding at 1 µM,[7],13%
same,remaining binding at 1 µM,[8],6%
same,remaining binding at 1 µM,[9],100%
same,remaining binding at 1 µM,[10],100%
same,remaining binding at 1 µM,[11],96%
same,remaining binding at 1 µM,[12],99%
same,remaining binding at 1 µM,[13],45%
same,remaining binding at 1 µM,[14],100%
same,remaining binding at 1 µM,[15],97%
same,remaining binding at 1 µM,[16],85%
same,remaining binding at 1 µM,[17],51%
same,remaining binding at 1 µM,[18],6.1%
same,remaining binding at 1 µM,[19],100%
same,remaining binding at 1 µM,[20],92%
same,remaining binding at 1 µM,[21],100%
same,remaining binding at 1 µM,[22],86%
same,remaining binding at 1 µM,[23],73%
same,remaining binding at 1 µM,[24],73%
same,remaining binding at 1 µM,[25],100%
same,remaining binding at 1 µM,[26],100%
same,remaining binding at 1 µM,[27],100%
same,remaining binding at 1 µM,[28],83%
same,remaining binding at 1 µM,[29],100%
same,remaining binding at 1 µM,[30],100%
same,remaining binding at 1 µM,[31],95%
same,remaining binding at 1 µM,[32],94%
same,remaining binding at 1 µM,[33],89%
same,remaining binding at 1 µM,[34],72%
same,remaining binding at 1 µM,[35],42%
same,remaining binding at 1 µM,[36],63%
same,remaining binding at 1 µM,[37],96%
same,remaining binding at 1 µM,[38],88%
